Among the data in ChEMBL document CHEMBL6092212, “Discovery of novel substituted (Z)-N'-hydroxy-3-(3-phenylureido)benzimidamide derivatives as multifunctional molecules targeting pathological hallmarks of Alzheimer's disease” (Eur J Med Chem, 2024) are IC50, inhibition and Activity values, retold here.

In general, IC50 refers to the point on the concentration scale where inhibition reaches its midpoint. One may read the inhibition as the percentage by which the read-out fell short of the control.

Test [1] has as its target T1, Acetylcholinesterase (Homo sapiens, UniProt P22303). The test is described as follows: Inhibition of human AChE using ATCI as substrate preincubated for 30 mins followed by substrate addition measured after 30 mins by Ellman's method.
Test [2] addresses Cholinesterase (Equus caballus, UniProt P81908). The test is described as follows: Inhibition of equine BChE using BTCI as substrate preincubated for 30 mins followed by substrate addition measured after 30 mins by Ellman's method. Background: Ellman's reagent forms a yellow product with free thiols.
Test [3] has as its target T1, Acetylcholinesterase. The test is described as follows: Inhibition of human AChE using ATCI as substrate preincubated for 30 mins followed by substrate addition measured after 30 mins by Ellman's method relative to control. More on the design: concentration or dose not given beside the values. The note with it: time 60.0 min.
Test [4] is described as follows: Antioxidant activity assessed as DPPH radical scavenging activity at 20 to 200 uM incubated for 30 mins by absorbance based analysis relative to control. The test is classed as functional. Conditions: dose 20-200 µM.
Test [5] can be described thus: Antioxidant activity assessed as inhibition of DPPH radical scavenging activity incubated for 30 mins by absorbance based analysis. The test is classed as functional.
In test [6] the target is Cholinesterase (Equus caballus) (UniProt P81908). Put plainly: Inhibition of equine BChE using BTCI as substrate preincubated for 30 mins followed by substrate addition measured after 30 mins by Ellman's method relative to control.
Chain of Cholinesterase (Equus caballus) (P81908 whole entry): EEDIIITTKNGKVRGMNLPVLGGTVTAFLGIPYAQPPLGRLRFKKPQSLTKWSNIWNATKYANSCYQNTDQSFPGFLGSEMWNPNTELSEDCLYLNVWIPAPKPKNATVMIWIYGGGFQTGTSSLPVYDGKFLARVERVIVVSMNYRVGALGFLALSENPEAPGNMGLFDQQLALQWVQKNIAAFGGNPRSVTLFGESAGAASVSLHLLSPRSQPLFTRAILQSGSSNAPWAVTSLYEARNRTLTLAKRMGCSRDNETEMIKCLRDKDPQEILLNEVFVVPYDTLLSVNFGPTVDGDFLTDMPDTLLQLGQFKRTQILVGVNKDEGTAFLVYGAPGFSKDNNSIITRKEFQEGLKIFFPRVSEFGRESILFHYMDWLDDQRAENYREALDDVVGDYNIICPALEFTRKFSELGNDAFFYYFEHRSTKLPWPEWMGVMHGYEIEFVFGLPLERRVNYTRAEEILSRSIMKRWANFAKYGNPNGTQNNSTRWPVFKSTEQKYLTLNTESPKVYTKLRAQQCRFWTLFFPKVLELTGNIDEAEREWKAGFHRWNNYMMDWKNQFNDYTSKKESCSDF

Chain of Cholinesterase (P81908 whole entry): as above
T1 sequence (P22303 whole entry): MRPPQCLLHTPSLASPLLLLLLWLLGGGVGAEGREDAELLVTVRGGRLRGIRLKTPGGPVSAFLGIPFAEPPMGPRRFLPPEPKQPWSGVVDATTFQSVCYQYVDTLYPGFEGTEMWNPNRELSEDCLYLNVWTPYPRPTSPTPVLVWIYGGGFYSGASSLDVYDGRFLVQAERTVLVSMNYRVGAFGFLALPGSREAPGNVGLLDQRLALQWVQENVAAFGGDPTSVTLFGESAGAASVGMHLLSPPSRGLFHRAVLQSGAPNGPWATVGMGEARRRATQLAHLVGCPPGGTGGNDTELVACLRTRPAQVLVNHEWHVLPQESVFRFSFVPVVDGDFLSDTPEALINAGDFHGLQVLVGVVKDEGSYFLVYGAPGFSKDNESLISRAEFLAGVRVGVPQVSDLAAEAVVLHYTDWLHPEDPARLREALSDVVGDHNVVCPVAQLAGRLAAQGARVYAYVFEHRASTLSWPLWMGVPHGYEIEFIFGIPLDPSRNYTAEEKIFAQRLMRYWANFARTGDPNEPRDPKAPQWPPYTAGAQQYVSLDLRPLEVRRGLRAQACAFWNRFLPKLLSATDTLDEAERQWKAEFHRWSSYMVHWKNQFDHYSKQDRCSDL

Regarding `N/C(=N\O)c1ccc(NC(=O)Nc2ccc3[nH]ccc3c2)cc1`, the IC50 in test [1] is 7.47 µM; in test [2], 12.7 µM.
The like results for `NC(=NO)c1cccc(NC(=O)Nc2cccc(O)c2)c1` were, in that order, 14.5 µM and 15.5 µM.
The like results for `NC(=NO)c1cccc(NC(=O)Nc2ccc(F)cc2)c1` were, in that order, 7.51 µM and 17.7 µM.
With `N/C(=N\O)c1cccc(NC(=O)Nc2ccccc2Cl)c1`, the inhibition in test [3] is 49.2%.
Take `NC(=NO)c1cccc(NC(=O)Nc2ccc([N+](=O)[O-])cc2)c1`: the IC50 in test [1] amounted to 16.3 µM; in test [2], 17.6 µM.
`N/C(=N\O)c1cccc(NC(=O)Nc2ccccc2)c1`: the IC50 in test [2] came to 17.5 µM. The compound further displayed an inhibition in test [3] of 47.9%.
In the case of `N/C(=N\O)c1cccc(NC(=O)NCCc2c[nH]c3ccccc23)c1`, the IC50 in test [1] worked out at 1.54 µM; in test [2], 3.91 µM.
Taken in the same sequence, the figures for `NC(=NO)c1cccc(NC(=O)Nc2cccc(Cl)c2)c1` were 17.4 µM and 18.7 µM.
For `NC(=NO)c1cccc(NC(=O)Nc2ccccc2Cl)c1`, inhibition in test [2] was half-maximal at 15.4 µM (IC50).
For `NC(=NO)c1cccc(NC(=O)Nc2ccc3ncccc3c2)c1`, the values for the IC50 in test [1] and in test [2] were 5.68 µM and 15.4 µM, respectively.
Taken in the same sequence, the figures for `N/C(=N\O)c1cccc(NC(=O)Nc2cccc(C(F)(F)F)c2)c1` were 17 µM and 10.5 µM.
With `COc1ccc(NC(=O)Nc2cccc(/C(N)=N/O)c2)cc1`, the IC50 worked out at 16.3 µM in test [1] and 17.9 µM in test [2].
As for `Cc1cccc(NC(=O)Nc2cccc(/C(N)=N/O)c2)c1`, in test [2], the IC50 was 10.6 µM. Besides, the inhibition in test [3] is 42.5%.
As to `NC(=NO)c1ccc(NC(=O)Nc2cccc(Br)c2)cc1`, the IC50 was found to be 6.41 µM in test [1] and 7.62 µM in test [2].
Taken in the same sequence, the figures for `NC(=NO)c1cccc(NC(=O)Nc2ccccc2C(F)(F)F)c1` were 18.3 µM and 17.1 µM.
The like results for `N/C(=N\O)c1cccc(NC(=O)Nc2ccc(Cl)cc2)c1` were, in that order, 14.1 µM and 16.5 µM.
`NC(=NO)c1cccc(NC(=O)Nc2ccc(Br)cc2)c1`: the IC50 was 16.8 µM in test [1] and 14.6 µM in test [2].
Taken in the same sequence, the figures for `N/C(=N\O)c1ccc(NC(=O)Nc2cccc(F)c2)cc1` were 3.04 µM and 8.08 µM.
Consider `N/C(=N\O)c1cccc(NC(=O)Nc2ccc(O)cc2)c1`, for which the IC50 in test [1] is 16.3 µM; in test [2], 14.4 µM.
Taken in the same sequence, the figures for `NC(=NO)c1cccc(NC(=O)Nc2cccc([N+](=O)[O-])c2)c1` were 12.1 µM and 16.3 µM.
Taken in the same sequence, the figures for `N/C(=N\O)c1ccc(NC(=O)Nc2ccc3ncccc3c2)cc1` were 6.94 µM and 13.2 µM.
For `N/C(=N\O)c1cccc(NC(=O)Nc2ccc3[nH]ccc3c2)c1`, the Activity in test [4] was 34.2%. For the same compound, the IC50 in test [1] was found to be 6.24 µM; in test [2], 15.9 µM; in test [5], 22.9 µM.
In the case of `N/C(=N\O)c1cccc(NC(=O)Nc2ccc(C(F)(F)F)cc2)c1`, the inhibition in test [6] stood at 47%. The compound also displayed an IC50 in test [1] of 12.2 µM.
As to `COc1cccc(NC(=O)Nc2cccc(/C(N)=N/O)c2)c1`, the IC50 in test [1] was determined as 12.9 µM; in test [2], 12.8 µM.
For `N/C(=N\O)c1ccc(NC(=O)Nc2ccc(Cl)cc2)cc1`, the IC50 in test [1] is 7.65 µM; in test [2] it was 14.6 µM.
For `N/C(=N\O)c1cccc(NC(=O)Nc2ccccc2Br)c1`, the inhibition turned out to be 49.2% in test [6] and 47.7% in test [3].
`COc1ccccc1NC(=O)Nc1cccc(/C(N)=N/O)c1` had an IC50 in test [2] of 15.2 µM. Besides, the inhibition in test [3] stood at 49%.
On to `N/C(=N\O)c1cccc(NC(=O)Nc2cccc(Br)c2)c1`, for which the IC50 amounted to 14.5 µM in test [1] and 8.63 µM in test [2].
Taken in the same sequence, the figures for `Cc1ccccc1NC(=O)Nc1ccc(/C(N)=N/O)cc1` were 8.57 µM and 16.9 µM.
As to `N/C(=N\O)c1cccc(NC(=O)Nc2ccc3ncccc3c2)c1`, the Activity in test [4] came out at 42.9%. Besides, the IC50 in test [5] is 18.4 µM.
Turning to `N/C(=N\O)c1cccc(NC(=O)Nc2ccccc2F)c1`, the IC50 stood at 18.6 µM in test [1] and 11.3 µM in test [2].
As to `Cc1ccccc1NC(=O)Nc1cccc(/C(N)=N/O)c1`, the IC50 in test [1] amounted to 17.4 µM; in test [2], 15.4 µM.
The like results for `COc1cccc(NC(=O)Nc2ccc(/C(N)=N/O)cc2)c1` were, in that order, 9.15 µM and 18.2 µM.
With `O=c1c(O)c(-c2ccc(O)c(O)c2)oc2cc(O)cc(O)c12` [QUERCETIN], in test [4], the Activity came out at 79.4%. Besides, the IC50 in test [5] is 3.23 µM.
`Cc1ccc(NC(=O)Nc2cccc(/C(N)=N/O)c2)cc1` gave an IC50 in test [2] of 17.9 µM. The inhibition in test [3] was determined as 39.9%.
`N/C(=N\O)c1cccc(NC(=O)NCCc2c[nH]c3ccc(Cl)cc23)c1`: the IC50 was 1.16 µM in test [1] and 3.1 µM in test [2].
